Assay results reported in patent US7767240B2, “Microbiological control in poultry processing” (priority 2001, dated 2010).
Where “and” joins values, the source holds several entries; their conditions need not be identical. Equal entries are not always repeated. Each block holds one compound with its values, some of them ahead of it.

Columns and labels:
[1] = test system: Pseudomonas aeruginosa (ATCC 15442) biofilm; experiment: MBEC biofilm eradication test (Calgary biofilm device); format: cell-based; conditions: one-hour biocide contact time; for MBEC (minimum biofilm eradication concentration): individual determinations
Source text: Table 45 summarizes test results performed at MBEC Biofilm Technologies, Inc., Calgary, Canada on the effectiveness of various biocides on biofilm removal. The test procedure, developed at the University of Calgary, utilizes a device which allows the growth of 96 identical biofilms under carefully controlled conditions. The device consists of a two-part vessel comprised of an upper plate containing 96 pegs that seals against a bottom plate. The bottom plate can consist of either a trough (for biofilm growth) or a standard 96-well plate (for biocide challenge). The biofilms develop on the 96 pegs. The device has been used as a general method for evaluating the efficacy of antibiotics and biocides towards biofilms. See in this connection H. Ceri, et al., “The MBEC Test: A New In Vitro Assay Allowing Rapid Screening for Antibiotic Sensitivity of Biofilm”, Proceedings of the ASM, 1998, 89, 525; Ceri, et al., “Antifungal and Biocide Susceptibility testing of Candida Biofilms using the MBEC Device”, Proceedings of the Interscience Conference on Antimicrobial Agents and Chemotherapy, 1998, 38, 495; and H. Ceri, et al., “The Calgary Biofilm Device: A New Technology for the Rapid Determination of Antibiotic Susceptibility of Bacterial Biofilms”, Journal of Clinical Microbiology, 1999, 37, 1771-1776.
Six biocide systems were evaluated using the above test procedure and test equipment. Five of these systems were oxidizing biocides, viz., chlorine (from NaOCl), halogen (from NaOCl+NaBr), halogen (from BCDMH), bromine (from DBDMH), and chlorine (from trichloroisocyanuric acid), all expressed as bromine as Br2 in mg/L, so that all test results were placed on the same basis. The sixth biocide was glutaraldehyde, a non-oxidizing biocide.
These biocide systems were used to challenge biofilms of Pseudomonas aeruginosa (ATCC 15442). This is a Gram (−) bacterium which is ubiquitous in microbiological slimes found in many water systems. See in this connection J. W. Costerton and H. Anwar, “Pseudomonas aeruginosa: The Microbe and Pathogen”, in Pseudomonas aeruginosa Infections and Treatment, A. L. Baltch and R. P. Smith editors, Marcel Dekker publishers, New York, 1994. In the field of poultry processing, S. Notermans, J. Dormans, and G. C. Mead, Biofouling, 1991, Vol. 5, pages 21-36, report observation of biofilms in poultry slaughter houses by use of scanning electron microscopy.
In Table 45 the MBEC (minimum biofilm eradication concentration) results presented are for the one-hour biocide contact time used in the test. The values given for the halogen containing biocides are expressed in terms of mg/L of bromine as Br2. The data on the glutaraldehyde is in terms of mg/L as active ingredient. […] In fact, only slightly more than one-half as much bromine from DBDMH was required to remove the biofilm as compared to the total halogen, expressed as Br2, that was required from BCDMH.

Enterococcus faecium = experiment: AOAC test method, kill of bacterial culture; format: cell-based; conditions: for concentration required to achieve complete kill within 30 seconds: Enterococcus faecium, AOAC test
Procedure: One such series of tests involved determinations of microbiological control against Escherichia coli bacteria. Another set of tests involved determinations of microbiological control against Enterococcus faecium. In each case, comparative tests were carried out in the same manner utilizing the AOAC test method. Such test involves exposing a culture of the microorganism to various concentrations of a test solution prepared from an aqueous stock solution of the compound under test. At various time intervals the halogen in the test suspensions is chemically neutralized, and the amount of viable bacteria remaining is enumerated by plating onto nutrient agar and incubating for 2 days at 37° C. Results are expressed at the log10 colony forming units (CFU). The concentration of the compound required to achieve complete kill (i.e., no viable bacteria remain) within 30 seconds is determined in the test.
Table 44 summarizes the data obtained in the tests using respectively 1,3-dibromo-5,5-dimethylhydantoin (DBDMH) and N,N-bromochloro-5,5-dimethylhydantoin (BCDMH) and in which the microorganism in each case was Enterococcus faecium.

[2] = format: physicochemical
Source text: Another mode of applying the microbiocidally-effective amounts of solid-state microbiocides of these embodiments of the invention is to cause the microbiocide to be leached into water streams passing through conduits and into tanks or other washing devices utilized in the processing of the poultry. For example, suitable solid forms of the microbiocide, preferably a bromine-based microbiocide, such as tablets, briquettes, pellets, nuggets, or granules are placed in suitable feeding devices through which a stream of water is passed. The passage of the water through the bed of the microbiocide results in the stream continuously dissolving small quantities of the microbiocide to thereby provide microbiocidally effective amounts of the microbiocide in the water. 1,3-Dibromo-5,5-dimethylhydantoin is especially preferred for use in this mode of application because of its relatively low solubility and thus relatively slow rate of dissolution in water at ambient room temperatures. This translates into relatively long periods of use before need of refilling the device holding the solids.

[3] = 0.5 mg/L as Br2, contact time 30 sec
[4] = 0.5 mg/L as Br2, contact time 1 min
[5] = 0.5 mg/L as Br2, contact time 2 min
[6] = 0.5 mg/L as Br2, contact time 3 min
[7] = 0.5 mg/L as Br2, contact time 4 min
[8] = 0.5 mg/L as Br2, contact time 5 min
[9] = 0.5 mg/L as Br2, contact time 10 min
[10] = 1.0 mg/L as Br2, contact time 30 sec
[11] = 1.0 mg/L as Br2, contact time 1 min
[12] = 1.0 mg/L as Br2, contact time 2 min
[13] = 1.0 mg/L as Br2, contact time 3 min
[14] = 1.0 mg/L as Br2, contact time 4 min
[15] = 1.0 mg/L as Br2, contact time 5 min
[16] = 1.0 mg/L as Br2, contact time 10 min
[17] = 2.0 mg/L as Br2, contact time 30 sec
[18] = 2.0 mg/L as Br2, contact time 1 min
[19] = 2.0 mg/L as Br2, contact time 2 min
[20] = 2.0 mg/L as Br2, contact time 3 min
[21] = 2.0 mg/L as Br2, contact time 4 min
[22] = 2.0 mg/L as Br2, contact time 5 min
[23] = 2.0 mg/L as Br2, contact time 10 min

solubility in water [2]: 890 ppm expressed as Cl2
Compound: CC1(C)C(=O)N(Cl)C(=O)N1Br [BCDMH, N,N′-bromochloro-5,5-dimethylhydantoin]
MBEC, avg. [1]: 2.5 mg/L of bromine as Br2
MBEC (minimum biofilm eradication concentration) [1]: 2.5, 2.5 mg/L of bromine as Br2
Log10 CFU Recovered (Enterococcus faecium; [3]): >4.48 Log10 CFU
Log10 CFU Recovered (Enterococcus faecium; [4]): 3.53 Log10 CFU
Log10 CFU Recovered (Enterococcus faecium; [5]): 2.63 Log10 CFU
Log10 CFU Recovered (Enterococcus faecium; [6]): 0.00 Log10 CFU
Log10 CFU Recovered (Enterococcus faecium; [7]): 0.00 Log10 CFU
Log10 CFU Recovered (Enterococcus faecium; [8]): 0.00 Log10 CFU
Log10 CFU Recovered (Enterococcus faecium; [9]): 0.00 Log10 CFU
Log10 CFU Recovered (Enterococcus faecium; [10]): >4.48 Log10 CFU
Log10 CFU Recovered (Enterococcus faecium; [11]): 2.38 Log10 CFU
Log10 CFU Recovered (Enterococcus faecium; [12]): 0.00 Log10 CFU
Log10 CFU Recovered (Enterococcus faecium; [13]): 0.00 Log10 CFU
Log10 CFU Recovered (Enterococcus faecium; [14]): 0.00 Log10 CFU
Log10 CFU Recovered (Enterococcus faecium; [15]): 0.00 Log10 CFU
Log10 CFU Recovered (Enterococcus faecium; [16]): 0.00 Log10 CFU
Log10 CFU Recovered (Enterococcus faecium; [17]): 0.00 Log10 CFU
Log10 CFU Recovered (Enterococcus faecium; [18]): 0.00 Log10 CFU
Log10 CFU Recovered (Enterococcus faecium; [19]): 0.00 Log10 CFU
Log10 CFU Recovered (Enterococcus faecium; [20]): 0.00 Log10 CFU
Log10 CFU Recovered (Enterococcus faecium; [21]): 0.00 Log10 CFU
Log10 CFU Recovered (Enterococcus faecium; [22]): 0.00 Log10 CFU
Log10 CFU Recovered (Enterococcus faecium; [23]): 0.00 Log10 CFU
concentration required to achieve complete kill within 30 seconds (Enterococcus faecium): two

Compound: CC1(C)C(=O)N(Br)C(=O)N1Br [DBDMH, 1,3-dibromo-5,5-dimethylhydantoin]
MBEC, avg. [1]: 1.4 mg/L of bromine as Br2
MBEC (minimum biofilm eradication concentration) [1]: 1.4 mg/L of bromine as Br2 and 1.4, 1.4 mg/L of bromine as Br2
Log10 CFU Recovered (Enterococcus faecium; [3]): 4.32 Log10 CFU
Log10 CFU Recovered (Enterococcus faecium; [4]): 2.36 Log10 CFU
Log10 CFU Recovered (Enterococcus faecium; [5]): 0.00 Log10 CFU
Log10 CFU Recovered (Enterococcus faecium; [6]): 0.00 Log10 CFU
Log10 CFU Recovered (Enterococcus faecium; [7]): 0.00 Log10 CFU
Log10 CFU Recovered (Enterococcus faecium; [8]): 0.00 Log10 CFU
Log10 CFU Recovered (Enterococcus faecium; [9]): 0.00 Log10 CFU
Log10 CFU Recovered (Enterococcus faecium; [10]): 0.00 Log10 CFU
Log10 CFU Recovered (Enterococcus faecium; [11]): 0.00 Log10 CFU
Log10 CFU Recovered (Enterococcus faecium; [12]): 0.00 Log10 CFU
Log10 CFU Recovered (Enterococcus faecium; [13]): 0.00 Log10 CFU
Log10 CFU Recovered (Enterococcus faecium; [14]): 0.00 Log10 CFU
Log10 CFU Recovered (Enterococcus faecium; [15]): 0.00 Log10 CFU
Log10 CFU Recovered (Enterococcus faecium; [16]): 0.00 Log10 CFU
Log10 CFU Recovered (Enterococcus faecium; [17]): 0.00 Log10 CFU
Log10 CFU Recovered (Enterococcus faecium; [18]): 0.00 Log10 CFU
Log10 CFU Recovered (Enterococcus faecium; [19]): 0.00 Log10 CFU
Log10 CFU Recovered (Enterococcus faecium; [20]): 0.00 Log10 CFU
Log10 CFU Recovered (Enterococcus faecium; [21]): 0.00 Log10 CFU
Log10 CFU Recovered (Enterococcus faecium; [22]): 0.00 Log10 CFU
Log10 CFU Recovered (Enterococcus faecium; [23]): 0.00 Log10 CFU
concentration required to achieve complete kill within 30 seconds (Enterococcus faecium): one
solubility in water [2]: 405 ppm expressed as Cl2
